Our source for the Kd values is paper PMC3516806 (Scientific Reports, 2012).

The target in this assay is BoGT6a (Bacteroides ovatus, UniProt A0ABU3IMV7). The assay is described as follows: ITC, […]°C, HEPES pH […], no metal. The class given is binding. On the technique in general: In ITC the heat of successive injections is recorded.

Broadly, the Kd is the equilibrium constant for the complex coming apart.

For `CC(=O)N[C@H]1[C@@H](OP(=O)(O)OP(=O)(O)OC[C@H]2O[C@@H](n3ccc(=O)[nH]c3=O)[C@H](O)[C@@H]2O)O[C@H](CO)[C@H](O)[C@@H]1O` [UDP-GalNAc], the Kd is 59 µM.
